Data published in patent US9023878B2 (Neurophyxia B.V., priority 2010, dated 2015).
Values joined by “and” are separate entries in the source; they are usually repeats but may differ in a detail not shown here. Equal values may be shown once. Marks after values point to notes of the source that are not given here.

Legend:
[1] = Surfactants: stepwise solubility in surfactant solutions in 5% dextrose; format: physicochemical; settings: nominal 1.6 mg/ml, without addition of acid
Description: Stock solutions of the surfactant were prepared in 5% dextrose.

[2] = Physical stability of saturated 10% SBE-CD solutions, 5 days at 5° C. and RT; format: physicochemical; settings: saturated solution; note: key: −: Precipitation of 2-IB; +: no precipitation
[3] = Novel excipients (Cremophor EL, Solutol HS 15): 2-IB content of formulations at t=0 and after 48 hours; settings: for Concentration t = 0 / Concentration t = 48 h: Solutol HS 15 formulation
Description: Finally two novel excipients were tested, Cremophor EL and Solutol HS 15.
A range of 2-IB formulations were prepared that were stored for 48 hours and measured for 2-IB content:

[4] = Solvent selection: stepwise solvent addition, solubility judged visually
Description: Solubility of 2-IB was determined in the following solvents: • 0.9% Sodium chloride in water • 5% Dextrose in water • N,N-dimethylacetamide • N,N-dimethylformamide • Dimethyl sulfoxide • Ethanol • Propolyene glycol • Polyethyleneglycol 400 • Corn oil
Approximately 10 mg of 2-IB was weighed into a 10 ml tube. Subsequently, small aliquots (100 μl-100 μl-200 μl-400 μl-800 μl-1600 μl-3200 μl) of the respective solvents were added stepwise. After each addition, the solution was mixed intensively and visually judged for solubility.
Therefore the experiment was repeated for propylene glycol but with addition of 100 μl 1N hydrochloric acid after 200 μl propylene glycol (i.e. 10 mg 2-IB+200 μl propylene glycol+100 μl 1N hydrochloric acid).
When an acidified 2-IB formulation in 5% dextrose is prepared, the pH after acidification is approximately 2 for nominal 2-IB concentrations in the range 1-5 mg/ml.

[5] = Description: Necropsy took place approximately one hour after the second injection. Blood and brain samples were collected for both the mother and fetuses.
[6] = nominal 5.0 mg/ml, pH 2.4, after filtration
[7] = nominal 5.0 mg/ml, pH 2.8, after filtration
[8] = nominal 5.0 mg/ml, pH 3.0, after filtration
[9] = nominal 5.0 mg/ml, pH 3.5, after filtration
[10] = nominal 5.0 mg/ml, pH 3.6, after filtration
[11] = nominal 5.0 mg/ml, pH 3.8, after filtration
[12] = nominal 5.0 mg/ml, pH 10.2, after filtration
[13] = nominal 10 mg/ml, pH 3.0, after filtration
[14] = nominal 10 mg/ml, pH 3.5, after filtration
[15] = nominal 20 mg/ml, pH 3.0, after filtration
[16] = nominal 20 mg/ml, pH 3.5, after filtration
[17] = average of 4 litters, maternal dose 55 mg/kg sc, 55 mg/kg
[18] = average of 4 maternal rats, 55 mg/kg sc, 55 mg/kg
[19] = pooled female fetuses per maternal rat, maternal dose 55 mg/kg sc, 55 mg/kg

N=C1N[C@H]2[C@H](CS[C@H]2CCCCC(=O)O)N1 [Formulation 2-IB, 2-iminobiotin]
solubility, visually judged [1]: did not dissolve in any of the surfactant solutions | 5 days at 5° C. ([2]; pH 4.0): − | 5 days at RT ([2]; pH 4.0): + | 5 days at 5° C. ([2]; pH 4.5): − | 5 days at RT ([2]; pH 4.5): + | 5 days at 5° C. ([2]; pH 5.0): − | 5 days at RT ([2]; pH 5.0): + | 5 days at 5° C. ([2]; pH 5.1): − | 5 days at RT ([2]; pH 5.1): + | 5 days at 5° C. ([2]; pH 5.5): − | 5 days at RT ([2]; pH 5.5): + | 5 days at 5° C. ([2]; pH 6.2): − | 5 days at RT ([2]; pH 6.2): + | 5 days at 5° C. ([2]; pH 7.0): − | 5 days at RT ([2]; pH 7.0): + | Solutol HS 15 concentration giving optimal solubility ([3]; 5-10-15-20-25% Solutol HS 15 tested at approximately 5 mg/ml): 20% | pH at which the formulation could be prepared ([3]; 20% Solutol HS 15 and 5% Dextrose in water): 3.5-3.6 | Concentration t = 0 [3, 6]: 5650 µg/mL | Concentration t = 48 h [3, 6]: 4780 µg/mL | Concentration t = 0 [3, 7]: 5430 µg/mL | Concentration t = 48 h [3, 7]: 5450 µg/mL | Concentration t = 0 [3, 8]: 4640 µg/mL | Concentration t = 48 h [3, 8]: 4870 µg/mL | Concentration t = 0 [3, 9]: 5210 µg/mL | Concentration t = 48 h [3, 9]: 4940 µg/mL | Concentration t = 0 [3, 10]: 4520 µg/mL | Concentration t = 48 h [3, 10]: 3930 µg/mL | Concentration t = 0 [3, 11]: 5100 µg/mL | Concentration t = 48 h [3, 11]: 2620 µg/mL | Concentration t = 0 [3, 12]: 5710 µg/mL | Concentration t = 48 h [3, 12]: 0 µg/mL | Concentration t = 0 [3, 13]: 9060 µg/mL | Concentration t = 48 h [3, 13]: 8640 µg/mL | Concentration t = 0 [3, 14]: 8300 µg/mL | Concentration t = 48 h [3, 14]: 8040 µg/mL | Concentration t = 0 [3, 15]: 16600 µg/mL | Concentration t = 48 h [3, 15]: 16700 µg/mL | Concentration t = 0 [3, 16]: 14700 µg/mL | Concentration t = 48 h [3, 16]: 13200 µg/mL | concentration of fully dissolved and stable solution ([4]; 10 mg 2-IB+200 μl propylene glycol+100 μl 1N hydrochloric acid): 33000 µg/mL | solubility, visually judged ([4]; 10 mg in 6400 μl (1.6 mg/ml) of 0.9% NaCl, 5% dextrose, DMA, DMF, DMSO, ethanol, propylene glycol, PEG 400 or corn oil): not sufficiently soluble in any of these solvents | effect of addition of water ([4]; 33 mg/ml propylene glycol/hydrochloric acid formulation): immediately resulted in precipitation of 2-IB | precipitation, visual observation ([4]; acidified 2-IB in 5% dextrose neutralized to pH 7): nearly all 2-IB has precipitated out of solution | pH up to which partial neutralization is possible before precipitation ([4]; acidified 2-IB in 5% dextrose, nominal 1-5 mg/ml, 0.1% sodium hydroxide): 3-3.5 | solubility, visually judged ([4]; same solvents after addition of 100 μl of 1N hydrochloric acid): fully dissolved in all solvents | mortality of maternal animals ([5]; 55 mg/kg sc, Day 20 post-coitum): No mortality occurred | 2-IB concentration in brain, female fetuses, average (±SD) [5, 17]: 369 ng/g and 369 (±72) ng/g | 2-IB concentration in brain, male fetuses, average (±SD) [5, 17]: 329 ng/g and 329 (±72) ng/g | 2-IB plasma concentration, female fetuses, average (±SD) [5, 17]: 1,903 ng/mL and 1,903 (±437) ng/mL | 2-IB plasma concentration, male fetuses, average (±SD) [5, 17]: 1,765 ng/mL and 1,765 (±259) ng/mL | 2-IB concentration in brain, maternal, average (±SD) [5, 18]: 268 ng/g and 268 (±92) ng/g | 2-IB plasma concentration, maternal, average (±SD) [5, 18]: 10,039 ng/mL and 10,039 (±3371) ng/mL | 2-IB concentration in brain sample, maternal ([5]; individual maternal Wistar rats, 55 mg/kg sc, 55 mg/kg): 151 ng/g and 375 ng/g and 270 ng/g and 276 ng/g | 2-IB plasma concentration, maternal ([5]; individual maternal Wistar rats, Day 20 post-coitum, 2 sc injections of 27.5 mg/kg, approximately one hour after second injection, 27.5 mg/kg): 7,104 ng/mL and 14,185 ng/mL and 7,490 ng/mL and 11,378 ng/mL | 2-IB concentration in brain sample, pooled fetuses (females) [5, 19]: 474 (n = 3) ng/g and 317 (n = 8) ng/g and 329 (n = 4) ng/g and 356 (n = 7) ng/g | 2-IB plasma concentration, pooled fetuses (females) [5, 19]: 2,442* (n = 3) ng/mL and 2,063 (n = 8) ng/mL and 1,474 (n = 4) ng/mL and 1,634 (n = 7) ng/mL | 2-IB concentration in brain sample, pooled fetuses (males) ([5]; pooled male fetuses per maternal rat, maternal dose 55 mg/kg sc, 55 mg/kg): 287 (n = 8) ng/g and 435 (n = 4) ng/g and 283 (n = 5) ng/g and 309 (n = 8) ng/g
